# Test results as given in patent US20040010001A1, “Methods and compositions for modulating cell proliferation and cell death” (priority 1999, published 2004).
# Where two headings read alike, the source gives them in different places.
# Experiments:
# Type in all cases: cell-based
# [1] = system: rat primary tumors, histocultures; assay: Drug effect in histocultures of rat primary tumors (inhibition of 3H-thymidine incorporation); settings: Histocultures, Primary, 96 hours, read-out: Concentration producing 50% inhibition
# [2] = system: rat primary tumor cells, monolayers; assay: Drug effect in monolayers of rat primary tumor cells (inhibition of bromodeoxyuridine incorporation); settings: 96 h, read-out: Concentration producing 50% inhibition
# [3] = system: rat lymph node metastasis cells, monolayers; assay: Drug effect in monolayers of rat lymph node metastasis cells (inhibition of bromodeoxyuridine incorporation); settings: 96 h, read-out: Concentration producing 50% inhibition
# [4] = system: rat lung metastasis cells, monolayers; assay: Drug effect in monolayers of rat lung metastasis cells (inhibition of bromodeoxyuridine incorporation); settings: 96 h, read-out: Concentration producing 50% inhibition
# [5] = system: Human prostate PC3 tumor cells; assay: aFGF/bFGF-induced resistance and reversal by suramin, sulforhodamine B assay
# Procedure: The experimental conditions are described briefly below. […] Cell number was measured using the sulforhodamine B assay which measures the total protein concentration. […] The FGF-induced resistance was dependent on the FGF concentrations, with a higher resistance at higher FGF concentrations.
# [6] = system: Human breast BC19 (subline of MCF7 transfected with mdr1); assay: FGF-induced resistance, inhibition of BrdU incorporation; settings: read-out: Drug concentration needed to produce 50% inhibition
# Procedure: (§1) Prior to drug treatment, cells were incubated for 4 days with tumor CM or with r-aFGF ad/or r-bFGF-containing medium, supplemented with 1% FBS (final protein concentration adjusted to 2 mg/ml). The medium was renewed every other day.
# (§2) The antiproliferative drug effect in histocultures was measured as inhibition of ^3H-thymidine incorporation quantified by autoradiography (Yen, W. C. et al. (1996) Pharm. Res. 13:1305-1312) and, for monolayers, as inhibition of BrdU incorporation or as reduction of total proteins by the sulforhodamine B assay (Au, J. L.-S. et al. (1998) Cancer Res. 58:2141-2148). For the latter, the two assays yielded qualitatively similar results. Cell kill induced by 96-hour drug treatment was monitored by the release of LDH into the culture medium. LDH activity was monitored by the conversion of tetrazolium to formazan (detected at 490 nm).
# (§3) The experimental conditions are described briefly below. Cells were pretreated with human recombinant r-aFGF and/or r-bFGF for 96 hours and then with drugs for 96 hours. For the studies on cells derived from the human prostate, lung, pharynx, colon and breast cancer cells, the drug effect was determined by the inhibition of BrdU incorporation. For the study on the human leukemic cells, the drug effect was measured by the MTT assay, which measures the number of metabolically active cells (Alley, M. C. et al (1988) Cancer Res 48:589-601).
# Human breast MCF7 = assay: as above; settings: read-out: Drug concentration needed to produce 50% inhibition
# Procedure: as §1, §2, §3
# Human colon HT-29 = assay: as above; settings: read-out: Drug concentration needed to produce 50% inhibition
# Procedure: as §1, §2, §3
# Human lung A459 = assay: as above; settings: read-out: Drug concentration needed to produce 50% inhibition
# Procedure: as §1, §2, §3
# Human pharynx FaDu = assay: as above; settings: read-out: Drug concentration needed to produce 50% inhibition
# Procedure: as §1, §2, §3
# Human prostate PC3 = assay: as above; settings: Homo sapiens, read-out: Drug concentration needed to produce 50% inhibition
# Procedure: as §1, §2, §3
# Rat prostate MAT-LyLu = assay: as above; settings: read-out: Drug concentration needed to produce 50% inhibition
# Procedure: as §1, §2, §3
# [7] = no suramin, relative to control
# [8] = 96 h, r-aFGF + r-bFGF 0.04 ± 1 ng/ml
# [9] = 96 h, r-aFGF + r-bFGF 0.08 ± 1 ng/ml
# [10] = 96 h, r-aFGF + r-bFGF 0.32 ± 1 ng/ml
# [11] = 96 h, r-aFGF + r-bFGF 0.64 ± 1 ng/ml
# [12] = 96 h, r-aFGF + r-bFGF 1 ± 1 ng/ml
structure (smiles),measurement,setting,value
O=c1[nH]cc(F)c(=O)[nH]1 [5-Fluorouracil],IC50,[1],33 ± 12 µM
same,IC50,[2]; Monolayers (passage 0),790 ± 40 nM
same,IC50,[2]; Monolayers (passage 1),850 ± 30 nM
same,IC50,[2]; Monolayers (passage 2),790 ± 60 nM
same,IC50,[2]; Monolayers (passage 3),780 ± 40 nM
same,IC50,[3]; Monolayers (passage 0),1900 ± 60 nM
same,IC50,[3]; Monolayers (passage 1),1290 ± 60 nM
same,IC50,[3]; Monolayers (passage 2),1090 ± 40 nM
same,IC50,[3]; Monolayers (passage 3),830 ± 100 nM
same,IC50,[4]; Monolayers (passage 0),2840 ± 240 nM
same,IC50,[4]; Monolayers (passage 1),1520 ± 80 nM
same,IC50,[4]; Monolayers (passage 2),1200 ± 40 nM
same,IC50,[4]; Monolayers (passage 3),810 ± 40 nM
same,IC50,"[5]; Homo sapiens, read-out: IC50, Control (drug treatment only, without FGF treatment), No suramin, drug 96 hours",2210 nM
same,IC50,"[5]; Homo sapiens, read-out: IC50, aFGF 0.3 ng/ml + bFGF 1 ng/ml, No suramin, FGF pretreatment 96 hours, drug 96 hours",5050 nM
same,IC50,"[5]; Homo sapiens, read-out: IC50, aFGF 1 ng/ml + bFGF 3 ng/ml, No suramin, FGF pretreatment 96 hours, drug 96 hours",12600 nM
same,"Resistance, Folds, aFGF 0.3 ng/ml + bFGF 1 ng/ml",[5]; [7],2.29 Folds
same,"Resistance, Folds, aFGF 1 ng/ml + bFGF 3 ng/ml",[5]; [7],5.71 Folds
same,IC50,"[5]; read-out: IC50, Control (without FGF treatment), Suramin, 15 μM, drug 96 hours with 15 μM suramin",2390 nM
same,IC50,"[5]; read-out: IC50, aFGF 0.3 ng/ml + bFGF 1 ng/ml, With suramin, FGF pretreatment 96 hours, drug 96 hours with 15 micromolar suramin",2160 nM
same,IC50,"[5]; read-out: IC50, aFGF 1 ng/ml + bFGF 3 ng/ml, With suramin, FGF pretreatment 96 hours, drug 96 hours with 15 micromolar suramin",2140 nM
same,IC50,[6]; r-bFGF 0 ng/ml,975 nM
same,IC50,[6]; r-bFGF 0.01 ng/ml,1070 nM
same,IC50,[6]; r-bFGF 0.1 ng/ml,1370 nM
same,IC50,[6]; r-bFGF 1 ng/ml,1510 nM
same,IC50,"Human breast MCF7; MCF7, r-bFGF 0 ng/ml",991 nM
same,IC50,"Human breast MCF7; MCF7, r-bFGF 0.01 ng/ml",1030 nM
same,IC50,"Human breast MCF7; MCF7, r-bFGF 0.1 ng/ml",1370 nM
same,IC50,"Human breast MCF7; MCF7, r-bFGF 1 ng/ml",1510 nM
same,IC50,"Human colon HT-29; HT-29, 96 h, r-aFGF + r-bFGF 0 ng/ml",1640 nM
same,IC50,"Human colon HT-29; HT-29, 96 h, r-aFGF + r-bFGF 0.04 ± 1 ng/ml",1760 nM
same,IC50,"Human colon HT-29; HT-29, 96 h, r-aFGF + r-bFGF 0.08 ± 1 ng/ml",1550 nM
same,IC50,"Human colon HT-29; HT-29, 96 h, r-aFGF + r-bFGF 0.16 ± 1 ng/ml",1610 nM
same,IC50,"Human colon HT-29; HT-29, 96 h, r-aFGF + r-bFGF 0.32 ± 1 ng/ml",2770 nM
same,IC50,"Human colon HT-29; HT-29, 96 h, r-aFGF + r-bFGF 0.64 ± 1 ng/ml",5210 nM
same,IC50,"Human colon HT-29; HT-29, 96 h, r-aFGF + r-bFGF 1 ± 1 ng/ml",7070 nM
same,IC50,"Human colon HT-29; HT-29, r-aFGF 0 ng/ml",1640 nM
same,IC50,"Human colon HT-29; HT-29, r-aFGF 1 ng/ml",1620 nM
same,IC50,"Human colon HT-29; HT-29, r-aFGF 10 ng/ml",1580 nM
same,IC50,"Human colon HT-29; HT-29, r-aFGF 50 ng/ml",1630 nM
same,IC50,"Human colon HT-29; HT-29, r-bFGF 0 ng/ml",2090 nM
same,IC50,"Human colon HT-29; HT-29, r-bFGF 1 ng/ml",2360 nM
same,IC50,"Human colon HT-29; HT-29, r-bFGF 10 ng/ml",2230 nM
same,IC50,"Human colon HT-29; HT-29, r-bFGF 50 ng/ml",2250 nM
same,IC50,"Human lung A459; A459, 96 h, r-aFGF + r-bFGF 0 ng/ml",862 nM
same,IC50,"Human lung A459; A459, 96 h, r-aFGF + r-bFGF 0.04 ± 1 ng/ml",908 nM
same,IC50,"Human lung A459; A459, 96 h, r-aFGF + r-bFGF 0.08 ± 1 ng/ml",995 nM
same,IC50,"Human lung A459; A459, 96 h, r-aFGF + r-bFGF 0.16 ± 1 ng/ml",1010 nM
same,IC50,"Human lung A459; A459, 96 h, r-aFGF + r-bFGF 0.32 ± 1 ng/ml",1620 nM
same,IC50,"Human lung A459; A459, 96 h, r-aFGF + r-bFGF 0.64 ± 1 ng/ml",2090 nM
same,IC50,"Human lung A459; A459, 96 h, r-aFGF + r-bFGF 1 ± 1 ng/ml",3630 nM
same,IC50,"Human lung A459; A459, r-bFGF 0 ng/ml",870 nM
same,IC50,"Human lung A459; A459, r-bFGF 1 ng/ml",1010 nM
same,IC50,"Human lung A459; A459, r-bFGF 10 ng/ml",1380 nM
same,IC50,"Human lung A459; A459, r-bFGF 50 ng/ml",1710 nM
same,IC50,"Human pharynx FaDu; 96 h, r-aFGF + r-bFGF 0 ng/ml",5.76 µM
same,IC50,Human pharynx FaDu; [8],5.44 µM
same,IC50,Human pharynx FaDu; [9],5.44 µM
same,IC50,"Human pharynx FaDu; 96 h, r-aFGF + r-bFGF 0.16 ± 1 ng/ml",5.47 µM
same,IC50,Human pharynx FaDu; [10],5.56 µM
same,IC50,Human pharynx FaDu; [11],9.69 µM
same,IC50,Human pharynx FaDu; [12],15.2 µM
same,IC50,Human pharynx FaDu; r-aFGF 0 ng/ml,5.75 µM
same,IC50,Human pharynx FaDu; r-aFGF 1 ng/ml,5.5 µM
same,IC50,Human pharynx FaDu; r-aFGF 10 ng/ml,5.45 µM
same,IC50,Human pharynx FaDu; r-aFGF 50 ng/ml,5.25 µM
same,IC50,Human pharynx FaDu; r-bFGF 0 ng/ml,4.34 µM
same,IC50,Human pharynx FaDu; r-bFGF 1 ng/ml,4.56 µM
same,IC50,Human pharynx FaDu; r-bFGF 10 ng/ml,4.79 µM
same,IC50,Human pharynx FaDu; r-bFGF 50 ng/ml,4.25 µM
same,IC50,Human prostate PC3; [8],761 nM
same,IC50,Human prostate PC3; [9],1150 nM
same,IC50,Human prostate PC3; [10],2540 nM
same,IC50,Human prostate PC3; [11],3770 nM
same,IC50,Human prostate PC3; [12],5740 nM
same,IC50,"Human prostate PC3; 96 h, r-aFGF + r-bFGF",1640 nM
same,IC50,Human prostate PC3; r-aFGF 0 ng/ml,810 nM
same,IC50,Human prostate PC3; r-aFGF 1 ng/ml,815 nM
same,IC50,Human prostate PC3; r-aFGF 10 ng/ml,695 nM
same,IC50,Human prostate PC3; r-aFGF 50 ng/ml,732 nM
same,IC50,Human prostate PC3; r-bFGF 0 ng/ml,741 nM
same,IC50,Human prostate PC3; r-bFGF 1 ng/ml,846 nM
same,IC50,Human prostate PC3; r-bFGF 10 ng/ml,2410 nM
same,IC50,Human prostate PC3; r-bFGF 50 ng/ml,4300 nM
same,IC50,Rat prostate MAT-LyLu; r-bFGF 0 ng/ml,746 nM
same,IC50,Rat prostate MAT-LyLu; r-bFGF 1 ng/ml,1050 nM
same,IC50,Rat prostate MAT-LyLu; r-bFGF 10 ng/ml,1990 nM
same,IC50,Rat prostate MAT-LyLu; r-bFGF 50 ng/ml,3250 nM
